The molecules below were run against SOS1/KRAS WT (Homo sapiens (Human), UniProt Q07889) (assay: SOS1/KRAS WT HTRF binding assay (FRET-based protein-protein interaction)). Details: inhibition of His6-SOS1 (aa564-1049, 40 nM) binding to GST-KRAS-WT (aa1-188, 40 nM); at least two independent replicates; read-out: SOS1/KRAS WT HTRF Binding assay pIC50 (converted).
Outline: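 Time-resolved FRET at 665 nm, read 4 hr after adding anti-GST-Eu(K) (4 nM) and anti-6His-XL665 (20 nM), tracked SOS1(aa564-1049)–KRAS WT(aa1-188) association. Both proteins were at 40 nM, pre-incubated 60 min at room temperature with compound. Max/min signals came from 0.05% DMSO and 10 μM reference, with four-parameter logistic IC50.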

SOS1/KRAS WT, sequence (Q07889 564-1049): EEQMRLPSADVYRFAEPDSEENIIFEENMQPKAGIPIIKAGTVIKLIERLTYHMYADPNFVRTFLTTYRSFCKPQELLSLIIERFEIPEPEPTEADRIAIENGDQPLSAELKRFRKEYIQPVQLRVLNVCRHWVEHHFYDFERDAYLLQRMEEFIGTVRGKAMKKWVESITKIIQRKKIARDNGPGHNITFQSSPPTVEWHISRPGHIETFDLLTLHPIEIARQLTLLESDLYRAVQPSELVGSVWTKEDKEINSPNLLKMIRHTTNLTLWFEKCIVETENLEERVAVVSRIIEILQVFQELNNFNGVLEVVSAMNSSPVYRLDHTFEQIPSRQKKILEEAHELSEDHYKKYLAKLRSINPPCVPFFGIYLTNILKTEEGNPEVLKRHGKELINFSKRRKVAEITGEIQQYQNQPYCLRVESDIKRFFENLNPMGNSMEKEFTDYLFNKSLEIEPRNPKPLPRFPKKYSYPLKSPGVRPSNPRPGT

| IC50 | Compound |
| --- | --- |
| 11 nM | COC1(C)C(=O)N(C2CC2)c2cc3c(N[C@H](C)c4cccc(C(F)(F)C(C)(C)O)c4F)nnc(C)c3cc21 (stereo partly drawn) [Compound 139, 1-cyclopropyl-3-methoxy-3,5-dimethyl-8-[[(1R)-1-[3-(1,1-difluoro-2-hydroxy-2-methyl-propyl)-2-fluoro-phenyl]ethyl]amino]pyrrolo[2,3-g]phthalazin-2-one] |
| 15.5 nM | COC1(C)C(=O)N(C2CC2)c2cc3c(N[C@H](C)c4cccc(C(F)(F)C(C)(C)O)c4C)nnc(C)c3cc21 (stereo partly drawn) [Compound 140, 1-cyclopropyl-3-methoxy-3,5-dimethyl-8-[[(1R)-1-[3-(1,1-difluoro-2-hydroxy-2-methyl-propyl)-2-methyl-phenyl]ethyl]amino]pyrrolo[2,3-g]phthalazin-2-one] |
| 12.9 nM | COC1(C)C(=O)N(C2CC2)c2cc3c(N[C@H](C)c4cccc(C(F)(F)CO)c4)nnc(C)c3cc21 (stereo partly drawn) [Compound 142, 1-cyclopropyl-3-methoxy-3,5-dimethyl-8-[[(1R)-1-[3-(1,1-difluoro-2-hydroxy-ethyl)phenyl]ethyl]amino]pyrrolo [2,3-g]phthalazin-2-one] |
| 11 nM | COC1(C)C(=O)N(C2CC2)c2cc3c(N[C@H](C)c4cccc(C(F)(F)CO)c4C)nnc(C)c3cc21 (stereo partly drawn) [Compound 143, 1-cyclopropyl-3-methoxy-3,5-dimethyl-8-[[(1R)-1-[3-(1,1-difluoro-2-hydroxy-ethyl)-2-methyl-phenyl]ethyl]amino]pyrrolo[2,3-g]phthalazin-2-one] |
| 11.7 nM | Cc1nnc(N[C@H](C)c2cccc(C(F)(F)F)c2)c2cc3c(cc12)n(C)c(=O)n3C1CCOC1 (stereo partly drawn) [Compound 144, 1,8-dimethyl-3-tetrahydrofuran-3-yl-5-[[(1R)-1-[3-(trifluoromethyl)phenyl]ethyl]amino]imidazo[4,5-g]phthalazin-2-one] |
| 21.4 nM | Cc1nnc(N[C@H](C)c2cccc(C(F)(F)F)c2)c2cc3c(cc12)n(C)c(=O)n3CC#N [Compound 148, 2-[1,8-dimethyl-2-oxo-5-[[(1R)-1-[3-(trifluoromethyl)phenyl]ethyl]amino]imidazo[4,5-g]phthalazin-3-yl]acetonitrile] |
| 10.2 nM | Cc1nnc(N[C@H](C)c2cccc(C(F)(F)F)c2)c2cc3c(cc12)n(C)c(=O)n3C(C)C#N (stereo partly drawn) [Compound 149, 2-[1,8-dimethyl-2-oxo-5-[[(1R)-1-[3-(trifluoromethyl)phenyl]ethyl]amino]imidazo[4,5-g]phthalazin-3-yl]propanenitrile] |
| 8.91 nM | Cc1c(-c2ccnn2C)cccc1[C@@H](C)Nc1nnc(C)c2cc3c(cc12)n(C)c(=O)n3C [Compound 150, 1,3,8-trimethyl-5-[[(1R)-1-[2-methyl-3-(2-methylpyrazol-3-yl)phenyl]ethyl]amino]imidazo[4,5-g]phthalazin-2-one] |
| 15.8 nM | Cc1c(C2CC2)cccc1[C@@H](C)Nc1nnc(C)c2cc3c(cc12)n(C)c(=O)n3C [Compound 154, 1,3,8-trimethyl-5-[[(1R)-1-(3-cyclopropyl-2-methyl-phenyl)ethyl]amino]imidazo[4,5-g]phthalazin-2-one] |
| 120 nM | Cc1c(C2=CCNC2)cccc1[C@@H](C)Nc1nnc(C)c2cc3c(cc12)n(C)c(=O)n3C [Compound 158, 1,3,8-trimethyl-5-[[(1R)-1-[3-(2,5-dihydro-1H-pyrrol-3-yl)-2-methyl-phenyl]ethyl]amino]imidazo[4,5-g]phthalazin-2-one] |
| 17.8 nM | Cc1c(-c2cncs2)cccc1[C@@H](C)Nc1nnc(C)c2cc3c(cc12)n(C)c(=O)n3C [Compound 159, 1,3,8-trimethyl-5-[[(1R)-1-(2-methyl-3-thiazol-5-yl-phenyl)ethyl]amino]imidazo[4,5-g]phthalazin-2-one] |
| 589 nM | Cc1c(C2CCNC2)cccc1[C@@H](C)Nc1nnc(C)c2cc3c(cc12)n(C)c(=O)n3C (stereo partly drawn) [Compound 161, 1,3,8-trimethyl-5-[[(1R)-1-(2-methyl-3-pyrrolidin-3-yl-phenyl)ethyl]amino]imidazo[4,5-g]phthalazin-2-one] |
| 9.12 nM | CCOC1(C)C(=O)N(C2CC2)c2cc3c(N[C@H](C)c4cccc(C(F)(F)CO)c4)nnc(C)c3cc21 (stereo partly drawn) [Compound 162, 1-cyclopropyl-8-[[(1R)-1-[3-(1,1-difluoro-2-hydroxy-ethyl)phenyl]ethyl]amino]-3-ethoxy-3,5-dimethyl-pyrrolo[3,2-g]phthalazin-2-one] |
| 10.7 nM | CCOC1(C)C(=O)N(C2CC2)c2cc3c(N[C@H](C)c4cccc(C(F)(F)C(C)(C)O)c4F)nnc(C)c3cc21 (stereo partly drawn) [Compound 163, 1-cyclopropyl-3-ethoxy-3,5-dimethyl-8-[[(1R)-1-[3-(1,1-difluoro-2-hydroxy-2-methyl-propyl)-2-fluoro-phenyl]ethyl]amino]pyrrolo[2,3-g]phthalazin-2-one] |
| 11.5 nM | CCOC1(C)C(=O)N(C2CC2)c2cc3c(N[C@H](C)c4cccc(C(F)(F)CO)c4F)nnc(C)c3cc21 (stereo partly drawn) [Compound 164, 1-cyclopropyl-3-ethoxy-3,5-dimethyl-8-[[(1R)-1-[3-(1,1-difluoro-2-hydroxy-ethyl)-2-fluoro-phenyl]ethyl]amino]pyrrolo[2,3-g]phthalazin-2-one] |
| 10 nM | CCOC1(C)C(=O)N(C2CC2)c2cc3c(N[C@H](C)c4cccc(C(F)(F)C(C)(C)O)c4)nnc(C)c3cc21 (stereo partly drawn) [Compound 165, 1-cyclopropyl-3-ethoxy-3,5-dimethyl-8-[[(1R)-1-[3-(1,1-difluoro-2-hydroxy-2-methyl-propyl)phenyl]ethyl]amino]pyrrolo [2,3-g]phthalazin-2-one] |
| 14.8 nM | CCOC1(C)C(=O)N(C2CC2)c2cc3c(N[C@H](C)c4cccc(C(F)(F)C(C)(C)O)c4C)nnc(C)c3cc21 (stereo partly drawn) [Compound 166, 1-cyclopropyl-3-ethoxy-3,5-dimethyl-8-[[(1R)-1-[3-(1,1-difluoro-2-hydroxy-2-methyl-propyl)-2-methyl-phenyl]ethyl]amino]pyrrolo[2,3-g]phthalazin-2-one] |

Continued, molecule first:

| Compound | IC50 |
| --- | --- |
| COC1(C)C(=O)N(C)c2cc3c(N[C@H](C)c4cc(F)cc(C(F)(F)CO)c4F)nnc(C)c3cc21 (stereo partly drawn) [Compound 141, 3-methoxy-1,3,5-trimethyl-8-[[(1R)-1-[3-(1,1-difluoro-2-hydroxy-ethyl)-2,5-difluoro-phenyl]ethyl]amino]pyrrolo[2,3-g]phthalazin-2-one] | 20 nM |
| Cc1nnc(N[C@H](C)c2cccc(C(F)(F)F)c2)c2cc3[nH]c(=O)n(C)c3cc12 [Compound 145, 1,8-dimethyl-5-[[(1R)-1-[3-(trifluoromethyl)phenyl]ethyl]amino]-3H-imidazo[4,5-g]phthalazin-2-one] | 66.1 nM |
| Cc1nnc(N[C@H](C)c2cccc(C(F)F)c2F)c2cc3c(cc12)n(C)c(=O)n3[C@H]1CCOC1 [Compound 146, 5-[[(1R)-1-[3-(difluoromethyl)-2-fluoro-phenyl]ethyl]amino]-1,8-dimethyl-3-[(3S)-tetrahydrofuran-3-yl]imidazo[4,5-g]phthalazin-2-one] | 12.3 nM |
| Cc1nnc(N[C@H](C)c2cccc(C(F)F)c2F)c2cc3c(cc12)n(C)c(=O)n3C1COC1 [Compound 147, 5-[[(1R)-1-[3-(difluoromethyl)-2-fluoro-phenyl]ethyl]amino]-1,8-dimethyl-3-(oxetan-3-yl)imidazo[4,5-g]phthalazin-2-one] | 12.3 nM |
| Cc1c(-c2ccn(C)n2)cccc1[C@@H](C)Nc1nnc(C)c2cc3c(cc12)n(C)c(=O)n3C [Compound 151, 1,3,8-trimethyl-5-[[(1R)-1-[2-methyl-3-(1-methylpyrazol-3-yl)phenyl]ethyl]amino]imidazo[4,5-g]phthalazin-2-one] | 11 nM |
| Cc1c(-c2cc(C(F)(F)F)nn2C)cccc1[C@@H](C)Nc1nnc(C)c2cc3c(cc12)n(C)c(=O)n3C [Compound 152, 1,3,8-trimethyl-5-[[(1R)-1-[2-methyl-3-[2-methyl-5-(trifluoromethyl)pyrazol-3-yl]phenyl]ethyl]amino]imidazo[4,5-g]phthalazin-2-one] | 85.1 nM |
| Cc1c(-c2cncnc2)cccc1[C@@H](C)Nc1nnc(C)c2cc3c(cc12)n(C)c(=O)n3C [Compound 153, 1,3,8-trimethyl-5-[[(1R)-1-(2-methyl-3-pyrimidin-5-yl-phenyl)ethyl]amino]imidazo[4,5-g]phthalazin-2-one] | 107 nM |
| Cc1c(-c2ccn[nH]2)cccc1[C@@H](C)Nc1nnc(C)c2cc3c(cc12)n(C)c(=O)n3C [Compound 155, 1,3,8-trimethyl-5-[[(1R)-1-[2-methyl-3-(1H-pyrazol-5-yl)phenyl]ethyl]amino]imidazo[4,5-g]phthalazin-2-one] | 30.9 nM |
| Cc1cc(-c2cccc([C@@H](C)Nc3nnc(C)c4cc5c(cc34)n(C)c(=O)n5C)c2C)n(C)n1 [Compound 156, 1,3,8-trimethyl-5-[[(1R)-1-[3-(2,5-dimethylpyrazol-3-yl)-2-methyl-phenyl]ethyl]amino]imidazo[4,5-g]phthalazin-2-one] | 89.1 nM |
| Cc1c(C2=CCOCC2)cccc1[C@@H](C)Nc1nnc(C)c2cc3c(cc12)n(C)c(=O)n3C [Compound 157, 5-[[(1R)-1-[3-(3,6-dihydro-2H-pyran-4-yl)-2-methyl-phenyl]ethyl]amino]-1,3,8-trimethyl-imidazo[4,5-g]phthalazin-2-one] | 204 nM |
| Cc1c(C2CCOCC2)cccc1[C@@H](C)Nc1nnc(C)c2cc3c(cc12)n(C)c(=O)n3C [Compound 160, 1,3,8-trimethyl-5-[[(1R)-1-(2-methyl-3-tetrahydropyran-4-yl-phenyl)ethyl]amino]imidazo[4,5-g]phthalazin-2-one] | 269 nM |
| CCOC1(C)C(=O)N(C2CC2)c2cc3c(N[C@H](C)c4cccc(C(F)(F)CO)c4C)nnc(C)c3cc21 (stereo partly drawn) [Compound 167, 1-cyclopropyl-3-ethoxy-3,5-dimethyl-8-[[(1R)-1-[3-(1,1-difluoro-2-hydroxy-ethyl)-2-methyl-phenyl]ethyl]amino]pyrrolo[2,3-g]phthalazin-2-one] | 12.6 nM |

Reference: patent US20250197407A1 (Jazz Pharmaceuticals Ireland Limited, priority 2022, published 2025)
